# Article PMC6688997 (Nature Communications, 2019)
# Legend:
# Assay in all cases: Kinase assay, 1 mM ATP
# Format in all cases: biochemical
# CSK = CSK (Homo sapiens, UniProt P41240)
# Protocol: (§1) An off-chip mobility shift assay was performed by Carna Biosciences, Inc. (Kobe, Japan), according to their product instructions. […] The IC50 values were estimated according to the four-parameter logistic model.
# EPHA2 = EPHA2 (Homo sapiens, UniProt P29317)
# Protocol: as §1
# p70S6K = p70S6K (Homo sapiens, UniProt P23443)
# Protocol: as §1
# EGFR(L861Q) = biological target: T1, EGFR(L861Q) (Homo sapiens, UniProt P00533, L861Q)
# T1 construct: purchased Carna Biosciences
# Protocol: as §1
# HGK = biological target: T2, HGK (Homo sapiens, UniProt O95819)
# T2 construct: purchased Carna Biosciences
# Protocol: as §1
# TSSK1 = biological target: T3, TSSK1 (Homo sapiens, UniProt Q9BXA7)
# T3 construct: purchased Carna Biosciences
# Protocol: as §1
# AurA = AurA (Homo sapiens, UniProt O14965)
# Protocol: as §1
# PBK = biological target: T4, PBK (Homo sapiens, UniProt Q96KB5)
# T4 construct: purchased Carna Biosciences
# Protocol: as §1
# EGFR(L858R) = biological target: T5, EGFR(L858R) (Homo sapiens, UniProt P00533, L858R)
# T5 construct: purchased Carna Biosciences
# T5 sequence (P00533 25-1210 L858R): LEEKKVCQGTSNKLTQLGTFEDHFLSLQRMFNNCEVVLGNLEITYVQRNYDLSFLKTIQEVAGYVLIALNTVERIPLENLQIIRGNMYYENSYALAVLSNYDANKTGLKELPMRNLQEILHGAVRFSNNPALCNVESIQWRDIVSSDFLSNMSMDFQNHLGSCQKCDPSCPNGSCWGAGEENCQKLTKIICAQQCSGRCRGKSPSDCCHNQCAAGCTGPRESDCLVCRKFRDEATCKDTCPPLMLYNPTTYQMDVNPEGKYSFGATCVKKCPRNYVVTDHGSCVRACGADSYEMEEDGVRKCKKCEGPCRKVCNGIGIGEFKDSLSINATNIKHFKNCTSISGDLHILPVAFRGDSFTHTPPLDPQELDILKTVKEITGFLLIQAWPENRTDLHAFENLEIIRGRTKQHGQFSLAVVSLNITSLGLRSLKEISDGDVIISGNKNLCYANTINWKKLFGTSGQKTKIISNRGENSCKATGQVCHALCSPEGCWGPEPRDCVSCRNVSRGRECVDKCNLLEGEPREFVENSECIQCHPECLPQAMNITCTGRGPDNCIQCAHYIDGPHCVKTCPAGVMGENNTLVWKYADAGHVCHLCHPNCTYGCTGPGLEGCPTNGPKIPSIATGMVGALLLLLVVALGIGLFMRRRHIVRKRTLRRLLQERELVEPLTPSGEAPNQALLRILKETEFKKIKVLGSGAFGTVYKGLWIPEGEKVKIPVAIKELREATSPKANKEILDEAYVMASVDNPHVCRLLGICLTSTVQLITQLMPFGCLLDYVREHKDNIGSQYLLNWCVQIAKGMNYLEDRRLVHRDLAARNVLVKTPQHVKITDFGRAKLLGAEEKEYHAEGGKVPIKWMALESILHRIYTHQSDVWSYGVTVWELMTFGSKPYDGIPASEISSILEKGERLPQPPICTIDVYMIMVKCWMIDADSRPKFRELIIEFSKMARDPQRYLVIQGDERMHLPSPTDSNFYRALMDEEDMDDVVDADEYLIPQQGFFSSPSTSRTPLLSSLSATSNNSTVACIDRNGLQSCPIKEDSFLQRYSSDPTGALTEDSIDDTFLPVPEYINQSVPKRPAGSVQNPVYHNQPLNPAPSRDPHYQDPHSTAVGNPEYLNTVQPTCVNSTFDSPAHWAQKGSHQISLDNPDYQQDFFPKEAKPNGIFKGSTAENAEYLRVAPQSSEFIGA
# Protocol: as §1
# FGFR4 = FGFR4 (Homo sapiens, UniProt P22455)
# Protocol: as §1
# PIM1 = PIM1 (Homo sapiens, UniProt P11309)
# PIM1, sequence (P11309 whole entry): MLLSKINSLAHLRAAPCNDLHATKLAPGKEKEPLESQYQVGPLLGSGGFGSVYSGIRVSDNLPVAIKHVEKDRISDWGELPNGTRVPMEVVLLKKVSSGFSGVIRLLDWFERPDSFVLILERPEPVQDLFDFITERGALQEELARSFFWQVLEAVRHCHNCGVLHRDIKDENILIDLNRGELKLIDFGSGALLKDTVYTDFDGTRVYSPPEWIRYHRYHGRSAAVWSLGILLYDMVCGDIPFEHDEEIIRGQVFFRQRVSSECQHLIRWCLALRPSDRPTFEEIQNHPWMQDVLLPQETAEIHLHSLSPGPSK
# Protocol: as §1
# BMX = biological target: T6, BMX (Homo sapiens, UniProt P51813)
# T6 construct: purchased Carna Biosciences
# Protocol: as §1
# EGFR(d746-750/T790M) = biological target: T7, EGFR(d746-750/T790M) (Homo sapiens, UniProt P00533, DEL746-750/T790M)
# T7 construct: purchased Carna Biosciences
# Protocol: as §1
# AKT1 = AKT1 (Homo sapiens, UniProt P31749)
# Protocol: as §1
# Erk5 = biological target: T8, Erk5 (Homo sapiens, UniProt Q13164)
# T8 construct: purchased Carna Biosciences
# Protocol: as §1
# HER2 = HER2 (Homo sapiens, UniProt P04626)
# HER2, sequence (P04626 23-1255): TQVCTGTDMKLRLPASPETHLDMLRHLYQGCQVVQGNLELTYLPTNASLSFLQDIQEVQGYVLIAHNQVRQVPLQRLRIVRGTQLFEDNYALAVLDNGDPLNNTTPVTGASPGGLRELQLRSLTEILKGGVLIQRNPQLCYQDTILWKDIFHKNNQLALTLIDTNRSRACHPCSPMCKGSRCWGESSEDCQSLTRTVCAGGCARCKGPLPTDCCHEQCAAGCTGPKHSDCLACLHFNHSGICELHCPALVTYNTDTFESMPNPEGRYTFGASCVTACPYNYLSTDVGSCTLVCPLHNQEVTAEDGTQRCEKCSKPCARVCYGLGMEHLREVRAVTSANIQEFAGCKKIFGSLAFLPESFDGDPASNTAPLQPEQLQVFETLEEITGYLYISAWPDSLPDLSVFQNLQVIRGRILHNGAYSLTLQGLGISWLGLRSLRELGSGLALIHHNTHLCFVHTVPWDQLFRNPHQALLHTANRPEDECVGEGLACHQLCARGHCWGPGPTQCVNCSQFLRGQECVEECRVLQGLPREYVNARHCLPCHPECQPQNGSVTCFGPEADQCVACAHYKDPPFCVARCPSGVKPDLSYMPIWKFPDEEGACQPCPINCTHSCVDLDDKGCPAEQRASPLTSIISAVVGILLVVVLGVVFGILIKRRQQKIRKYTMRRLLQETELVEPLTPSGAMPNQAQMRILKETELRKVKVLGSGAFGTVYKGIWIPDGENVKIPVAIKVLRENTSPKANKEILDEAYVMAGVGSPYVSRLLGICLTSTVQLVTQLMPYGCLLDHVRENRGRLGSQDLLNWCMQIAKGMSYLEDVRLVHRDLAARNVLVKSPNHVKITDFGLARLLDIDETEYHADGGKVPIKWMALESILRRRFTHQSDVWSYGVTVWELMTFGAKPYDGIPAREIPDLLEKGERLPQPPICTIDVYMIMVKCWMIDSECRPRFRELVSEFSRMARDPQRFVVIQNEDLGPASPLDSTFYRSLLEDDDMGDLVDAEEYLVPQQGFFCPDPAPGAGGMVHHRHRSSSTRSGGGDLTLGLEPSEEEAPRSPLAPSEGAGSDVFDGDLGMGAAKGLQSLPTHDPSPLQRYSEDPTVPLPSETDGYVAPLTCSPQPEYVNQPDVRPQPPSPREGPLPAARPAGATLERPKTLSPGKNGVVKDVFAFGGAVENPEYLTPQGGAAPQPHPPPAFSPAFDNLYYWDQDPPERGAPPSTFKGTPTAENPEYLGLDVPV
# Protocol: as §1
# CK1ε = CK1ε (Homo sapiens, UniProt P49674)
# Protocol: as §1
# CDK6/CycD3 = CDK6/CycD3 (Homo sapiens, UniProt Q00534)
# Protocol: as §1
# LCK = LCK (Homo sapiens, UniProt P06239)
# Protocol: as §1
# FLT1 = biological target: T9, FLT1 (Homo sapiens, UniProt P17948)
# T9 construct: purchased Carna Biosciences
# T9 sequence (P17948 27-1338): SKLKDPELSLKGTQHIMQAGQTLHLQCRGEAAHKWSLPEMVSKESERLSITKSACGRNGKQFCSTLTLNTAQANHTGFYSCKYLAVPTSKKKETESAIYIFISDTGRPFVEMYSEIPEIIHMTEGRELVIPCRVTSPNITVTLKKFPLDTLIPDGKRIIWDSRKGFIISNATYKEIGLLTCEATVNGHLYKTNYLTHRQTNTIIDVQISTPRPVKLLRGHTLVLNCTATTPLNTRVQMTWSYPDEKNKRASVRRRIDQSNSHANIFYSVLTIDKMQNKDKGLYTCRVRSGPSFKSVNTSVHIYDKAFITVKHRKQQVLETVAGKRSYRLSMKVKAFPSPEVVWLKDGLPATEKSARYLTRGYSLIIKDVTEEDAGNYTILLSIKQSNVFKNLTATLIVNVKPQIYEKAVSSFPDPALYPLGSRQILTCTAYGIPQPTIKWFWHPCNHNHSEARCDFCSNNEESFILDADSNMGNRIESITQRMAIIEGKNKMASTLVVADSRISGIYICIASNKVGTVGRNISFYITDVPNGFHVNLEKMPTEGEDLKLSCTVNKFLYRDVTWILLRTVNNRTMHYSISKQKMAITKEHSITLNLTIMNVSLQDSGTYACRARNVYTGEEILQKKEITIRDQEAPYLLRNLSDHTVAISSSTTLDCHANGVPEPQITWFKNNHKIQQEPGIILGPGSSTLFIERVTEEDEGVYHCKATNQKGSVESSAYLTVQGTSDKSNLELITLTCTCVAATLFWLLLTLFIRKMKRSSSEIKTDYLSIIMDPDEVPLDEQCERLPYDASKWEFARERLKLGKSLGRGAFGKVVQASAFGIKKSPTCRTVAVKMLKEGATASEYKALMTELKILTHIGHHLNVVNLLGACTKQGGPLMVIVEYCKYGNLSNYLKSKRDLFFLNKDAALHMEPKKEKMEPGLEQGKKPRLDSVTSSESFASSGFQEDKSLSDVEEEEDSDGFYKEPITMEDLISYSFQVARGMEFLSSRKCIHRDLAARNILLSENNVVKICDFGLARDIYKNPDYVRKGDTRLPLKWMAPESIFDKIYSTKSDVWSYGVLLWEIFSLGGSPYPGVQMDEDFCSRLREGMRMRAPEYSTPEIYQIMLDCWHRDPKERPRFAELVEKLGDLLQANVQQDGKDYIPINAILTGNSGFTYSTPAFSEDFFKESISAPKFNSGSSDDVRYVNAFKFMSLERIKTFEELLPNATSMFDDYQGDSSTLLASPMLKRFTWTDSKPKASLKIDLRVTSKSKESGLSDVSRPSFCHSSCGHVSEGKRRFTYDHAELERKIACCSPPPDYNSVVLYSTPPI
# Protocol: as §1
# EGFR = EGFR (Homo sapiens, UniProt P00533)
# Protocol: as §1
# RET = biological target: T10, RET (Homo sapiens, UniProt P07949)
# T10 construct: purchased Carna Biosciences
# Protocol: as §1
# RON = biological target: T11, RON (Homo sapiens, UniProt Q04912)
# T11 construct: purchased Carna Biosciences
# Protocol: as §1
# PDGFRβ = biological target: T12, PDGFRβ (Homo sapiens, UniProt P09619)
# T12 construct: purchased Carna Biosciences
# Protocol: as §1
# IRR = biological target: T13, IRR (Homo sapiens, UniProt P14616)
# T13 construct: purchased Carna Biosciences
# Protocol: as §1
# TNIK = biological target: T14, TNIK (Homo sapiens, UniProt Q9UKE5)
# T14 construct: purchased Carna Biosciences
# Protocol: as §1
# DYRK1A = DYRK1A (Homo sapiens, UniProt Q13627)
# Protocol: as §1
# PKACα = PKACα (Homo sapiens, UniProt P17612)
# Protocol: as §1
# FES = FES (Homo sapiens, UniProt P07332)
# Protocol: as §1
# GSK3β = GSK3β (Homo sapiens, UniProt P49841)
# Protocol: as §1
# TNK1 = biological target: T15, TNK1 (Homo sapiens, UniProt Q13470)
# T15 construct: purchased Carna Biosciences
# Protocol: as §1
# CK2α1/β = CK2α1/β (Homo sapiens, UniProt P68400)
# Protocol: as §1
# CDK2/CycE1 = CDK2/CycE1 (Homo sapiens, UniProt P24941)
# Protocol: as §1
# PIM2 = PIM2 (Homo sapiens, UniProt Q9P1W9)
# Protocol: as §1
# CDK5/p25 = CDK5/p25 (Homo sapiens, UniProt Q00535)
# Protocol: as §1
# NEK7 = NEK7 (Homo sapiens, UniProt Q8TDX7)
# Protocol: as §1
# AurC = biological target: T16, AurC (Homo sapiens, UniProt Q9UQB9)
# T16 construct: purchased Carna Biosciences
# Protocol: as §1
# FER = biological target: T17, FER (Homo sapiens, UniProt P16591)
# T17 construct: purchased Carna Biosciences
# Protocol: as §1
# RET(Y791F) = biological target: T18, RET(Y791F) (Homo sapiens, UniProt P07949, Y791F)
# T18 construct: purchased Carna Biosciences
# Protocol: as §1
# TEC = biological target: T19, TEC (Homo sapiens, UniProt P42680)
# T19 construct: purchased Carna Biosciences
# Protocol: as §1
# MER = biological target: T20, MER (Homo sapiens, UniProt Q12866)
# T20 construct: purchased Carna Biosciences
# T20 sequence (Q12866 21-999): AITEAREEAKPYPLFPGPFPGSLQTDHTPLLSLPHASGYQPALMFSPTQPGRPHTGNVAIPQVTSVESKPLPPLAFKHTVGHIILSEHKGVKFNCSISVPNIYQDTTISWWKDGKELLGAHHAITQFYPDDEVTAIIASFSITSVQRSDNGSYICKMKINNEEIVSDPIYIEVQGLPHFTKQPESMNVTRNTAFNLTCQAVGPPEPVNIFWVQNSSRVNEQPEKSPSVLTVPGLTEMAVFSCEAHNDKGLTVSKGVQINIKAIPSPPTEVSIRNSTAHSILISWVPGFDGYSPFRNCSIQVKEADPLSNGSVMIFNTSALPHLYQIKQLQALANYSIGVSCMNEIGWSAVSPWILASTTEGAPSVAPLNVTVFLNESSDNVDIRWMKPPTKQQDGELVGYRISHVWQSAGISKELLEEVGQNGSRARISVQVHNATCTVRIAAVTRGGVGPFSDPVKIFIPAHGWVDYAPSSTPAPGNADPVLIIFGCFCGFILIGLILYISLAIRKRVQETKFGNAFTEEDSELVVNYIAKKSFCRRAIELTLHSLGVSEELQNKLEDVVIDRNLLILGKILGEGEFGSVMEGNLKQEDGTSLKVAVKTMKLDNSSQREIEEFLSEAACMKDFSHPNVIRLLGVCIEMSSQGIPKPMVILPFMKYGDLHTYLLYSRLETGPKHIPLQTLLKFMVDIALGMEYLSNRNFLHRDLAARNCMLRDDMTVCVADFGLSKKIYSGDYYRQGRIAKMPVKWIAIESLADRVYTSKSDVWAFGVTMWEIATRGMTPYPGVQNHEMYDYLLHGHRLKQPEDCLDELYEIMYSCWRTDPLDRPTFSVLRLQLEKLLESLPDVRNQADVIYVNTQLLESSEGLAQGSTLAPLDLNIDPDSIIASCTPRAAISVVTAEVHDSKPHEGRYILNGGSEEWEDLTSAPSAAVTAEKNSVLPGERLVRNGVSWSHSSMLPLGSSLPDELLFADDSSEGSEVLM
# Protocol: as §1
# MINK = biological target: T21, MINK (Homo sapiens, UniProt Q8N4C8)
# T21 construct: purchased Carna Biosciences
# Protocol: as §1
structure (smiles),measurement,setting,value
C[C@@H](N)COc1ccc(-c2cnc3ccc(N[C@H](C)c4cccc(F)c4)nn23)cc1.O=C(O)CCCCC(=O)O [DS-6051b],inhibition at 0.2 µM,CSK,1%
same,inhibition at 0.2 µM,EPHA2,-2.2%
same,inhibition at 0.2 µM,p70S6K,8.3%
same,inhibition at 0.2 µM,EGFR(L861Q),-3.6%
same,inhibition at 0.2 µM,HGK,-8%
same,inhibition at 0.2 µM,TSSK1,-2.6%
same,inhibition at 0.2 µM,AurA,-15.7%
same,inhibition at 0.2 µM,PBK,-0.645%
same,inhibition at 0.2 µM,EGFR(L858R),0.7%
same,inhibition at 0.2 µM,FGFR4,3.7%
same,inhibition at 0.2 µM,PIM1,-3.6%
same,inhibition at 0.2 µM,BMX,10%
same,inhibition at 0.2 µM,EGFR(d746-750/T790M),-0.9%
same,inhibition at 0.2 µM,AKT1,-1.3%
same,inhibition at 0.2 µM,Erk5,5.2%
same,inhibition at 0.2 µM,HER2,8.7%
same,inhibition at 0.2 µM,CK1ε,-8.9%
same,inhibition at 0.2 µM,CDK6/CycD3,2.1%
same,inhibition at 0.2 µM,LCK,0.27%
same,inhibition at 0.2 µM,FLT1,-3.1%
same,inhibition at 0.2 µM,EGFR,3.7%
same,inhibition at 0.2 µM,RET,0.6%
same,inhibition at 0.2 µM,RON,9.2%
same,inhibition at 0.2 µM,PDGFRβ,3.1%
same,inhibition at 0.2 µM,IRR,16.8%
same,inhibition at 0.2 µM,TNIK,-3%
same,inhibition at 0.2 µM,DYRK1A,-11.4%
same,inhibition at 0.2 µM,PKACα,-7%
same,inhibition at 0.2 µM,FES,5.1%
same,inhibition at 0.2 µM,GSK3β,-23.2%
same,inhibition at 0.2 µM,TNK1,12.7%
same,inhibition at 0.2 µM,CK2α1/β,-12.2%
same,inhibition at 0.2 µM,CDK2/CycE1,-20.2%
same,inhibition at 0.2 µM,PIM2,-14%
same,inhibition at 0.2 µM,CDK5/p25,-7.4%
same,inhibition at 0.2 µM,NEK7,-2%
same,inhibition at 0.2 µM,AurC,-19%
same,inhibition at 0.2 µM,FER,5.5%
same,inhibition at 0.2 µM,RET(Y791F),-4.3%
same,inhibition at 0.2 µM,TEC,-1.2%
same,inhibition at 0.2 µM,MER,7.1%
same,inhibition at 0.2 µM,MINK,-2.2%
